# pIC50: −log10 of the molar value.
# Target: T1, TβR (GST-ALK5) (Homo sapiens, UniProt P36897)
# T1 sequence (P36897 34-503): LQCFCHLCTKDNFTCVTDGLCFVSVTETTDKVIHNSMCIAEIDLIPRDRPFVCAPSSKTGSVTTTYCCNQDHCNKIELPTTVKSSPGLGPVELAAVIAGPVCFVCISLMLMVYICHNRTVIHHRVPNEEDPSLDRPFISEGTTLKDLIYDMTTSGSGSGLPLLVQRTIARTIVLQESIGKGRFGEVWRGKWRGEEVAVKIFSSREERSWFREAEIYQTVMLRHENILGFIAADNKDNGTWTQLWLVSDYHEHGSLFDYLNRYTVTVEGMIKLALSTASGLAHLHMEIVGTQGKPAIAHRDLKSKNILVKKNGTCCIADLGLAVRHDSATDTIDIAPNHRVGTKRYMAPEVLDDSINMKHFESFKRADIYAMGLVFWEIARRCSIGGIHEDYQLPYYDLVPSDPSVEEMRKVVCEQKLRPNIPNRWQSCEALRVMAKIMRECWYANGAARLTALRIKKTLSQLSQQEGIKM
# Assay: In-vitro (enzyme) flashplate kinase assay, TβR activity
# Assay type: biochemical
# Conditions: GST-ALK5, GST-SMAD2 substrate, 3 mM ATP
# Description: In-Vitro (Enzyme) Assay for Determination of the Efficacy of Inhibitors of the Inhibition of TGF-Beta-Mediated Effects
# The kinase assay was carried out as 384-well flashplate assay. […] The reaction was stopped using 25 μl of 200 mM EDTA solution, filtered with suction at room temperature after 30 min, and the wells were washed with 3 times 100 μl of 0.9% NaCl solution. Radioactivity was measured in the TopCount. The IC50 values were calculated using RS1. Above and below, all temperatures were indicated in ° C.
row,Compound,pIC50
1,O=C(O)CCNc1cnccc1Nc1cc(-c2cc(Cl)ccc2F)nc2ccccc12 [compound 071],< 5.00
2,Fc1ccc(Cl)cc1-c1cc(Nc2ccncn2)c2ccccc2n1 [compound 003],> 6.30
3,Fc1ccc(Cl)cc1-c1cc(Nc2cn[nH]c2)c2ccccc2n1 [compound 016],> 6.30
4,CN(C)C(=O)Nc1cnccc1Nc1cc(-c2cc(Cl)ccc2F)nc2ccccc12 [compound 031],> 6.30
5,CCN(CC)CCNS(=O)(=O)Nc1cnccc1Nc1cc(-c2cc(Cl)ccc2F)nc2ccccc12 [compound 076],5.00 to 6.00
6,Fc1ccc(Cl)cc1-c1cc(Nc2ccnnc2)c2ccccc2n1 [compound 020],> 6.30
7,O=S(=O)(O)Nc1cnccc1Nc1cc(-c2cc(Cl)ccc2F)nc2ccccc12 [compound 041],5.00 to 6.00
8,CN(C)CCCC(=O)Nc1cnccc1Nc1cc(-c2cc(Cl)ccc2F)nc2ccccc12 [compound 067],6.00 to 6.30
9,Clc1ccccc1-c1cc(Nc2ccncc2)c2ccccc2n1 [compound 050],> 6.30
10,O=S(=O)(CC(F)(F)F)Nc1cnccc1Nc1cc(-c2cc(Cl)ccc2F)nc2ccccc12 [compound 030],5.00 to 6.00
11,COc1ccccc1-c1cc(Nc2ccncc2)c2ccccc2n1 [compound 052],5.00 to 6.00
12,O=C(Nc1cc(-c2cc(Cl)ccc2F)nc2ccccc12)c1cccnc1 [compound 010],5.00 to 6.00
13,O=S1(=O)Nc2cnccc2N1c1cc(-c2cc(Cl)ccc2F)nc2ccccc12 [compound 025],> 6.30
14,Fc1ccc(Cl)cc1-c1cc(Oc2ccncc2)c2ccccc2n1 [compound 006],< 5.00
15,Fc1ccc(Cl)cc1-c1cc(NCc2cccnc2)c2ccccc2n1 [compound 065],< 5.00
16,"O=[N+]([O-])c1cnccc1Nc1cc(-c2cc(Cl)ccc2F)nc2ccccc12 [compound 018, [2-(5-Chloro-2-fluoro-phenyl)-quinolin-4-yl]-(3-nitro-pyridin-4-yl)-amine]",5.00 to 6.00
17,O=c1[nH]c2cnccc2n1-c1cc(-c2ccccc2F)nc2ccccc12 [compound 034],6.00 to 6.30
18,Fc1ccccc1-c1cc(Nc2ccncc2C(F)(F)F)c2ccccc2n1 [compound 046],> 6.30
19,Nc1cnccc1Nc1cc(-c2cc(Cl)ccc2F)nc2ccccc12 [compound 019],> 6.30

# The remaining lines, values ahead:
row,pIC50,Compound
1,> 6.30,Nc1cc(Nc2cc(-c3cc(Cl)ccc3F)nc3ccccc23)ccn1 [compound 105]
2,> 6.30,Nc1ncnc(Nc2cc(-c3cc(Cl)ccc3F)nc3ccccc23)n1 [compound 078]
3,> 6.30,Nc1ncnc(Nc2cc(-c3cc(C(F)(F)F)ccc3F)nc3ccccc23)n1 [compound 118]
4,> 6.30,OCc1cnccc1Nc1cc(-c2ccccc2F)nc2ccccc12 [compound 127]
5,< 5.00,Fc1ccc(Cl)cc1-c1cc(Nc2ccncc2)c2cc3c(cc2n1)OCO3 [compound 095]
6,< 5.00,FC(F)(F)c1ccccc1-c1cc(Nc2ccncc2)c2ccccc2n1 [compound 083]
7,5.00 to 6.00,CN(C)CCCc1nc2cnccc2n1-c1cc(-c2cc(Cl)ccc2F)nc2ccccc12 [compound 091]
8,< 5.00,CN(C)c1cccc(-c2cc(Nc3cc(N)ncn3)c3ccccc3n2)c1 [compound 080]
9,5.00 to 6.00,CN1CCN(c2cc(Nc3cc(-c4cc(Cl)ccc4F)nc4ccccc34)ccn2)CC1 [compound 100]
10,< 5.00,Clc1cccc(-c2cc(Nc3ccncc3)c3ccccc3n2)c1Cl [compound 112]
11,> 6.30,CC(=O)Nc1cc(Nc2cc(-c3cc(Cl)ccc3F)nc3ccccc23)ccn1 [compound 107]
12,5.00 to 6.00,CC(C)(C)C(=O)Nc1cc(Nc2cc(-c3cc(Cl)ccc3F)nc3ccccc23)ccn1 [compound 111]
13,5.00 to 6.00,O=c1[nH]c2cnccc2n(-c2cc(-c3cc(Cl)ccc3F)nc3ccccc23)c1=O [compound 082]
14,5.00 to 6.00,Nc1nc(N)nc(Nc2cc(-c3cc(Cl)ccc3F)nc3ccccc23)n1 [compound 117]
15,5.00 to 6.00,NCC(=O)Nc1cc(Nc2cc(-c3cc(Cl)ccc3F)nc3ccccc23)ccn1 [compound 115]
